Earlier results on three compounds are cited in patent US20240156798A1, “ANTIOXIDANT COMPOSITIONS AND METHODS OF USE” (Sanare Pharmaceuticals, priority 2022, published 2024).

“Also recorded” adds a separate entry of the source. Where two headings read alike, the source gives them in different places.

For data set [1] the following is noted: hundreds of animal models.
Data set [2] has as its system ocular damage. To be noted: topical application, rat.
Data set [3] deals with ocular damage. To be noted: topical application, rhesus monkey.
The test system of data set [4] is radiation induced alopecia. To be noted: topical, human clinical trials.
Data set [5] has as its system experimentally induced glaucoma. To be noted: C57BL/6J mice.
In data set [6] the test system is high fat diet induced NAFLD. Particulars: for high fat diet induced NAFLD: mice fed a high fat diet.
Data set [7] concerns chemically induced colitis. Particulars: in vivo.
The test system of data set [8] is acetic acid-induced experimental colitis. To be noted: NAC 100 mg/kg for seven days.
Data set [9] relates to human retinal pigment epithelium (RPE).
Data set [10] has as its system photo-induced retinal degeneration. Particulars: intraperitoneal injection.
The next data set deals with dry eye. To be noted: eye drop administration.
Data set [11] deals with normal tension glaucoma (NTG).
The subject of another data set is IBD. To be noted: 168 patients, double blind, placebo-controlled.
The test system of a further data set is retinal degeneration. Particulars: several models of neurodegeneration and damage, including retinal degeneration.
Data set [12] deals with retinal ganglion cell (RCG) death after optic nerve crush.
In a further data set the test system is ocular alkali burn. To be noted: in vivo.
Another data set deals with U.C. To be noted: U.C. patients, open label.
Setting [13] is: RPE from both positive and negative AMD donors.
Setting [14] is: systemic treatment, following optic nerve crush.

“4-hydroxy-2,2,6,6-tetramethylpiperidin-1-oxyl [TEMPOL]”: the safety concerns result in data set [1] was “No safety concerns”. For the same compound, the ocular damage entry in the data set with ocular damage [2] is on record as “decrease”. Also, the ocular damage entry in the data set on ocular damage [3] was “decrease”. Further, the radiation induced alopecia result in data set [4] is recorded as “protect”. In the data set on gene expression, the “Glutathione S-Transferase (GST) gene(s) expression” value is “significantly increased”, the TNFα regulation result was “downregulates”, the “expression levels of keratinocyte growth factor (KGF) gene” value is on record as “statistically increased” and the “expression of HIF-1α” value was “statistically decreased”. In addition, in the data set on gene expression, the “expression of HIF-2α” value is listed as “statistically decreased”, the “expression of genes encoding for the 26s proteasome complex” value is “significantly decreased” and the “expression of the ADIPOQ gene” value is recorded as “statistically increased”. For the same compound, the UNC5b result in the data set with gene expression (cancer cells) is “significantly increases”. Besides, the “neuro-inflammation in the ocular hypertensive retina and optic nerve” value in data set [5] is listed as “decreased”. The “high fat diet induced NAFLD” value in data set [6] is “Can treat and prevent NAFLD in mice”. Also, the “degree of both neutrophil inflammation and lipid peroxidation in the inflamed bowel” value in [7] was “Reduction in the degree of both neutrophil”.

As to `CC(=O)N[C@@H](CS)C(=O)O` [NAC, N-acetyl-cysteine], in data set [8], the “macroscopic and histological findings” value was “protective role”. Besides, in [8] (compared to vehicle controls), the GSH concentration result is given as “restoration”, the NO concentration entry was “restoration” and the “colon tissue MPO activity” value is “significant decrease”. Moreover, in data set [9] (AMD RPE), the “basal GSH content” value was “increase” and the “basal ROS” value is on record as “reduction”. In data set [9] (H2O2, RPE from both positive and negative AMD donors), the GSH depletion entry is on record as “preventing”. For the same compound, in [9] (setting [13]), the “H2O2 induced cell death” value is “preventing” and the “excessive ROS accumulation” value was “blocking”. The “basal mitochondrial function (ATP)” value in data set [9] (both groups of cells) is on record as “improved”. In data set [9] (patients with AMD), the “effect on primary cultures of human RPE” value is “positive (protective) effect”. Moreover, the “oxidation and ER stresses” value in data set [10] is “suppressed”. In addition, the “ROS accumulation in the retina” value in [10] (Balb/c mouse) is reported as “inhibiting”. For the same compound, the “levels of ROS and inflammasome signaling” value in the data set with dry eye is reported as “diminished”. The “penetration to the posterior segment” value in the data set on retinitis pigmentosa (applied to the cornea) is reported as “able to penetrate to the posterior segment”. Besides, the “protecting the retina from oxidative damage” value in the data set with retinitis pigmentosa (applied topically to the eye) is listed as “effective”. Moreover, in [11] (EAAC1 KO mice), the glutathione levels entry is “increased”; the “oxidative stress and autophagy” value is “suppressed”. For the same compound, in data set [11] (mouse model of NTG), the “effect on retinal degeneration” value is given as “protective effect”. Moreover, in data set [11] (mouse, in vivo), the “decline of retinal function” value is given as “prevented” and the “retinal ganglion cells (RGC), NTG-like neurodegeneration” value is recorded as “protected”. In addition, in [6] (HFD mice), the glucose tolerance entry is given as “improved” and the “morphology of hepatic tissue” value is on record as “totally restored”. In addition, the “hepatic steatosis and metabolic disturbances” value in data set [6] (mice fed high fat diets (HFD), compared to normally fed mice) is listed as “significantly reduced”. The chemically induced colitis in data set [7] is recorded as “Protects against chemically induced”. Moreover, in the data set on IBD, the “Phase 2 study result” value is on record as “Positive results in a Phase 2”.

Regarding `C[C@H](CCC(=O)NCCS(=O)(=O)O)[C@H]1CC[C@H]2[C@@H]3[C@@H](O)C[C@@H]4C[C@H](O)CC[C@]4(C)[C@H]3CC[C@]12C` [TUDCA, tauroursodeoxycholic acid], the “apoptosis following cellular injury” value in the data set with retinal degeneration is listed as “block”. In addition, the “retinal ganglion cells in the optic crush model” value in data set [12] (in vivo) is given as “Protects retinal ganglia cells in the optic; also recorded: Protects retinal ganglion cells in the optic”. Further, in data set [12] (setting [14]), the RCGs survival entry was “significantly enhanced” and the apoptosis result is on record as “suppressed”. In addition, in the data set with ocular alkali burn, the “cornea and retina injury” value is reported as “protect”; the ocular inflammation result is reported as “inhibit”. In addition, the “progression of HFD induced NALFD” value in data set [6] (TUDCA alone, mice) is recorded as “attenuate”. The “high fat diet induced NAFLD” value in [6] was “markedly reduces”. Further, in data set [6] (mouse, in vivo), the gut inflammation entry was “attenuates; also recorded: ameliorating”, the intestinal barrier function result is reported as “improves; also recorded: improving”, the intestinal fat transport result is listed as “decreases; also recorded: decreasing” and the intestinal microbiota composition entry is “modulates; also recorded: modulating”. In data set [7], the chemically induced colitis was “Active against chemically induced colitis”. In addition, in the data set with U.C., the “Phase 1 study testing efficacy and safety” value is “Positive results in an open label Phase 1; also recorded: Positive results in Phase 1 study testing”.
